These results are taken from patent US4598066A, “Antimycoplasmal agent for animals and method of use for prevention and treatment of mycoplasmosis” (Fujisawa Pharmaceutical Co., Ltd., priority 1982, dated 1986).

This test concerns Mycoplasma gallisepticum 1RF. The test can be described thus: Test 5: Mycoplasma gallisepticum 1RF intranasal infection in chickens, Compound 1 and tylosin alone and combined. In kind it is in vivo, chicken. As to conditions: single oral dose 100 mg/kg 1 hr after intranasal infection; 20 days after infection (group C). The procedure:
Mycoplasma: Mycoplasma gallisepticum 1RF supplied from the National Institute of Animal Health, Ibaraki prefecture, Japan was used.
Chickens used: Broiler males (Chunky), purchased as day-old chickens from a commercial flock free of Mycoplasma gallisepticum agglutinins, were maintained under isolation in an electrically heated battery brooder. When birds reached 7 to 8 days of age, they were used for test.
Infection of mycoplasma: Mycoplasma gallisepticum 1RF was cultured in PPLO liquid medium (Difco) for 3 to 4 days at 37° C. until the colour of broth changed from red to yellowish organge. An aliquot of the culture (10^7 -10^8 cfu/ml) was used for infection.
Intranasal infections were produced by dropping 0.05 ml of the culture into the nasal cavity of chickens.
Recovery of mycoplasma: Twenty to 21 days after infection, the chickens were killed and recovery of mycoplasma was examined from the trachea, air-sac, and tibia-metatarsus joints.
Recovered organisms were identified as Mycoplasma gallisepticum after examining glucose fermentation, colonies, and haemadsorption test.
Inhibition(%) of infection: Average recovery percentage of Mycoplasma gallisepticum from trachea, air-sac, and tibia-metatarsus joints was measured infected medicated, and infected non-medicated chickens.
Inhibition(%) was calculated as follows: [formula] […]

Regarding `CC[C@H]1OC(=O)C[C@@H](O)[C@H](C)[C@@H](O[C@@H]2O[C@H](C)[C@@H](O[C@H]3C[C@@](C)(O)[C@@H](O)[C@H](C)O3)[C@H](N(C)C)[C@H]2O)[C@@H](CC=O)C[C@@H](C)C(=O)/C=C/C(C)=C/[C@@H]1CO[C@@H]1O[C@H](C)[C@@H](O)[C@@H](OC)[C@H]1OC` [Tylosin, tylosin], the “Inhibition (%) of infection” value is 17%.
